# Experimental data taken from patent US20230382904A1, “SUBSTITUTED 4-([1,2,4]TRIAZOLO[1,5-a]PYRIDIN-6-YL)THIOPHENE-2-CARBOXAMIDE DERIVATIVES AND USE THEREOF” (The Johns Hopkins University, priority 2020, published 2023).
# What was measured:
# [1] = In vitro PhysChem properties; type: physicochemical
# [2] = Mouse light damage model (serial OCT and serial ERG); type: in vivo; conditions: versus vehicle
# Procedure: After two weeks (14 days) acclimation in dim light (under 10-30 lux), female BALBc/J (10-12 weeks) were dark-adapted for 24 hrs. All compound injections were done in darkness with din-red light as needed. All mice were placed in light box after applying dilator (tropicamide or phenylephirine) topically. Then light was left on for 4 h with ˜3000 lux followed by dark recovery at the same condition with dark adaptation until any experimental procedure is ready or being placed in dim light condition (under 10-30 lux). Mice were then followed for 3-7 days with OCT, ERG, functional testing, and/or immunohistochemical analysis.
# [3] = biological target: DLK (Homo sapiens (Human), UniProt Q12852); assay: DLK biochemical assay (TR-FRET, MKK7 phosphorylation)
# How it was run: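 TR-FRET ratio (665/Eu) reports MKK7 T275/S277 phosphorylation, lowered by DLK inhibition. Reaction: 60 μM ATP, 15 nM MKK7, 10 nM DLK catalytic domain, 90 min room temperature; detection incubation 16 h, 37° C. (1536-well) or 4° C. (384-well). Final concentrations.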
# [4] = test system: DLK pathway activation; assay: Mouse optic nerve crush, p-JUN immunoreactivity in RGC layer; type: in vivo; conditions: compared to RGCs treated with the vehicle
# Procedure: Approximately three-month-old male C57BL/6 mice were anesthetized with 100/10 mg/kg of Ketamine/Xylazine followed by topical administration of proparacaine. Under the binocular operating scope, optic nerves were surgically exposed and crushed with Dumont N7 self-closing forceps 1-2 mm behind the globe. A small incision was made at the conjunctiva located at lateral orbit of eye globe using spring scissors. To avoid bleeding from the vasculature, minimum incision was continued until the optic nerve was exposed. After clean exposure, the optic nerve was grasped at approximately 1-2 mm from the globe for 3-7 seconds using the fine micro forceps. After careful removal of the micro forceps, the globe was relocated and Tobramycin was administered. Ten days after nerve crush, eyes were enucleated and fixed and surviving RGC was immunostained for SNCG, RBPMS and βIII-tubulin. The retinas were then imaged with a Nikon Eclipse TE2000-5 fluorescence microscope and Plan-fluor 40 Å˜/0.6 objective. […] RGCs were counted manually from each image. In a separate cohort of animals, optic nerves and retinas were sectioned and stained for phospho-JUN (an indicator of DLK pathway activation) 24 hours after optic nerve crush. Intravitreal injection, optic nerve crush, immunofluorescence, and RGC counting were performed in a masked fashion.
# [5] = test system: primary murine retinal ganglion cells; assay: Retinal ganglion cell (RGC) viability assay; type: cell-based; conditions: among compounds 4, 19, 94 and 112
# Procedure: The RGC assay detected the viability of primary murine retinal ganglion cells via Cell Titer Glo (Promega), using a previously described assay (Proc. Natl. Acad. Sci. USA. 2013, 110(10), 4045-50), which is incorporated herein by reference in its entirety.
# RGCs were freshly isolated from approximately P2 murine retinas by immunopanning using mouse anti-CD90 coated plates. Cells are seeded into poly-D-lysine or laminin coated plates in Neurobasal medium supplemented by 1% Pen/Strep (Gibco 15140-122), 0.01 mg/ml insulin, 1 mM sodium pyruvate, 1% of 100× Sato (400 mg transferrin, 400 mg BSA, 0.25 mg progesterone, 64 mg putrescine, 160 μg sodium selenite in 40 mL Neurobasal medium), 0.04 μg/ml triiodo-thyronine, 2 mM L-glutamine, 0.05 mg/ml N-acetyl cysteine, 10 μM forskolin, 2% 50× B27 (Gibco 17504-044).
# For the assay 500-2000 cells per well in a volume of 40 μl were used (384 MTP format). After 72 hours 20 μl Cell Titer Glo reagent was added and viability is measured via luminescent quantitation of ATP. The amount of ATP was directly proportional to the number of cells present in culture.
# [6] = In vitro PK properties (metabolic stability); type: in vitro ADME
# Procedure: Metabolic stabilities in rat hepatocytes were determined by incubating the compounds at low concentrations (e.g., below 1 μM) and at low cell numbers (e.g., at 1×10^6 cells/ml) to ensure linear kinetics. 7 time-points from the incubation mixture were withdrawn for analysis to define the half-life of the compound. From that half-life the intrinsic clearance in hepatocytes was calculated and used further to extrapolate the blood clearance (using the well-stirred model) and the corresponding Fmax value (maximum expected bioavailability after first pass of the liver) for the compounds. The CL and Fmax values reflect Phase I and II metabolism in hepatocytes. To minimize the influence of organic solvents in the incubation mixture their content was limited to max. 1% for ACN or max. 0.2% for DMSO. The values given in row 5 in the table in FIG. 1 are rat hepatocytes CLblood [L/h/kg] and rat hepatocytes Fmax [%].
# DLK, sequence (Q12852 1-520): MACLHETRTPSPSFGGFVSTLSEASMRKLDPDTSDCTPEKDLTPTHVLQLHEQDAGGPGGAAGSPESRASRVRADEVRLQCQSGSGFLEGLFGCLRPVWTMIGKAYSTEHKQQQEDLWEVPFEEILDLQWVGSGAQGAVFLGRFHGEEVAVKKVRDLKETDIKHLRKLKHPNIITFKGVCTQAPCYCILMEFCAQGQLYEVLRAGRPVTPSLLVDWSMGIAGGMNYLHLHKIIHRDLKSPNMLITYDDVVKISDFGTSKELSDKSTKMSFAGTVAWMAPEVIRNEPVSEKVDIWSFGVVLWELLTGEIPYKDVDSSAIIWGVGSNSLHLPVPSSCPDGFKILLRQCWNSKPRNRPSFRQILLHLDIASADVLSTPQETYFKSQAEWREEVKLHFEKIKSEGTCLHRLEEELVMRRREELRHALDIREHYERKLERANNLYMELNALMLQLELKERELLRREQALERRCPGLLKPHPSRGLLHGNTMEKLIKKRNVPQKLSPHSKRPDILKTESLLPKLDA
compound,measurement,setting,value
"CC[C@H](NC(=O)c1cc(-c2cc(C(=O)N[C@@H](C)CC)c3nc(N)nn3c2)cs1)c1ccc(F)cc1 [Compound 112, 2-Amino-N-[(2S)-butan-2-yl]-6-(5-{[(1S)-1-(4-fluorophenyl)propyl]carbamoyl}thiophen-3-yl)[1,2,4]triazolo[1,5-a]pyridine-8-carboxamide]",chemical stability,[1],chemically stable
same,a wave amplitude in photoreceptors,[2]; serial ERG,higher
same,b wave amplitude in inner retinal cells,[2]; serial ERG,higher
same,outer retinal layer (ORL) thickness,[2]; serial OCT,higher
same,IC50,[3],3.2 nM
same,p-cJun intensity in the RGCs,[4],decreased
same,activity in RGC assay,[5],most active
same,metabolic stability,[6],metabolically labile
